Assay results as given in ChEMBL document CHEMBL1201862, “PubChem BioAssay data set” (2004).
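48-hour exposure; five concentrations; linearly interpolated endpoints. Abbreviation: GI50, concentration required for 50% inhibition of growth.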 Activity calls are given as the source filed them. Rule as the data show it: active = GI50 up to about 1.1 µM and inactive = higher.

Key:
Assay in all cases: NCI anticancer screen, dose series, 48 h
OVCAR-8 = system: OVCAR-8
MDA-MB-231 = system: MDA-MB-231
UO-31 = system: UO-31
NCI/ADR-RES = system: NCI/ADR-RES
SK-MEL-5 = system: SK-MEL-5
K562 = system: K562
MCF7 = system: MCF7
HCT-15 = system: HCT-15
HL-60 = system: HL-60
SN12C = system: SN12C
SF-268 = system: SF-268
RPMI-8226 = system: RPMI-8226
A498 = system: A498
SK-OV-3 = system: SK-OV-3
Malme-3M = system: Malme-3M
MDA-N = system: MDA-N
OVCAR-3 = system: OVCAR-3
KM12 = system: KM12
U-251 = system: U-251
DU-145 = system: DU-145

| SMILES | GI50 (OVCAR-8) | GI50 (MDA-MB-231) | GI50 (UO-31) | GI50 (NCI/ADR-RES) | GI50 (SK-MEL-5) | GI50 (K562) | GI50 (MCF7) | GI50 (HCT-15) [µM] | GI50 (HL-60) | GI50 (SN12C) | GI50 (SF-268) | GI50 (RPMI-8226) | GI50 (A498) | GI50 (SK-OV-3) | GI50 (Malme-3M) | GI50 (MDA-N) | GI50 (OVCAR-3) | GI50 (KM12) | GI50 (U-251) | GI50 (DU-145) |
| --- | --- | --- | --- | --- | --- | --- | --- | --- | --- | --- | --- | --- | --- | --- | --- | --- | --- | --- | --- | --- |
| C=C1C(=O)O[C@H]2[C@@H](O)[C@H](C)CCC/C(C)=C/CC[C@@]3(C)O[C@@H]3C[C@@H]12 | 4.38 µM (inactive) | 12.9 µM (inactive) | 5.47 µM (inactive) | 6.43 µM (inactive) | 11.8 µM (inactive) | 4.06 µM (inactive) | 7.18 µM (inactive) | 1.92 | 2.47 µM (inactive) | 5.77 µM (inactive) | 8.22 µM (inactive) | 8.38 µM (inactive) | 12.4 µM (inactive) | 18.5 µM (inactive) | 11.5 µM (inactive) | 11.2 µM (inactive) | 11.3 µM (inactive) | 16.8 µM (inactive) | 8.73 µM (inactive) | 6.03 µM (inactive) |
| CCCCNC(=S)N/N=C/c1cccc(C)n1 | 33.5 µM (inactive) | 35.7 µM (inactive) | 29 µM (inactive) | 29 µM (inactive) | 43 µM (inactive) | 13.2 µM (inactive) | 37.8 µM (inactive) | 47.6 | 23.2 µM (inactive) | 30.1 µM (inactive) | 34 µM (inactive) | 25.5 µM (inactive) | 36.1 µM (inactive) | 59.8 µM (inactive) | 52.2 µM (inactive) | 42.8 µM (inactive) | > 100 µM (inactive) | 31.3 µM (inactive) | 44.2 µM (inactive) | 83.2 µM (inactive) |
| O=c1[nH]n(Cc2ccccc2CCl)c2ccc([N+](=O)[O-])cc12 | 40.5 µM (inactive) | 38.4 µM (inactive) | 88.3 µM (inactive) | 29.9 µM (inactive) | 13.4 µM (inactive) | 42.4 µM (inactive) | 29.8 µM (inactive) | 60.8 | 26.6 µM (inactive) | 52.7 µM (inactive) | 35.3 µM (inactive) | 32 µM (inactive) | 62.2 µM (inactive) | 27.7 µM (inactive) | 83.4 µM (inactive) | 62.1 µM (inactive) | 48.2 µM (inactive) | 49.5 µM (inactive) | 42.3 µM (inactive) | 59.7 µM (inactive) |
| CC(=N\N=C\c1ccccn1)/C(C)=N/N=C(C)/C(C)=N/N=C/c1ccccn1 | > 100 µM (inactive) | > 100 µM (inactive) | > 100 µM (inactive) | > 100 µM (inactive) | > 100 µM (inactive) |  | > 100 µM (inactive) | 71.3 | > 100 µM (inactive) | > 100 µM (inactive) | > 100 µM (inactive) | > 100 µM (inactive) | > 100 µM (inactive) | > 100 µM (inactive) | > 100 µM (inactive) | > 100 µM (inactive) | > 100 µM (inactive) | > 100 µM (inactive) | > 100 µM (inactive) | > 100 µM (inactive) |
| S=C(N/N=C(/c1ccccc1)c1ccccn1)Nc1ccc(Cl)cc1 | 0.0444 µM (active) | < 0.0106 µM (active) | 0.543 µM (active) | 0.195 µM (active) | 0.403 µM (active) | < 0.01 µM (active) | 0.0258 µM (active) | 0.067 | < 0.01 µM (active) | 0.211 µM (active) | 0.236 µM (active) | < 0.0221 µM (active) | 3.3 µM (inactive) | 0.175 µM (active) | 0.109 µM (active) | 1.09 µM (active) | < 0.0316 µM (active) | 1.07 µM (active) | 0.124 µM (active) | 1.87 µM (inactive) |
| CN(C)C(=S)/N=c1\ssc(=S)n1Cc1cccs1 | 4.99 µM (inactive) | 4.42 µM (inactive) | 6.28 µM (inactive) | 1.08 µM (active) | 1.04 µM (active) | 2.1 µM (inactive) | 1.99 µM (inactive) | 2.84 | 2.44 µM (inactive) | 6.9 µM (inactive) | 5.45 µM (inactive) | 5.81 µM (inactive) | 4.13 µM (inactive) | 3.46 µM (inactive) | 2.4 µM (inactive) | 0.604 µM (active) | 1.76 µM (inactive) | 3.39 µM (inactive) | 3.76 µM (inactive) | 3.24 µM (inactive) |
| COCCOCc1nc(C#N)c(N)o1 |  | > 100 µM (inactive) | > 100 µM (inactive) | > 100 µM (inactive) | > 100 µM (inactive) | > 100 µM (inactive) | > 100 µM (inactive) | > 100 | > 100 µM (inactive) | > 100 µM (inactive) | > 100 µM (inactive) | > 100 µM (inactive) | > 100 µM (inactive) | > 100 µM (inactive) | > 100 µM (inactive) | > 100 µM (inactive) | > 100 µM (inactive) | > 100 µM (inactive) | > 100 µM (inactive) | > 100 µM (inactive) |
